# Assay results reported in US12048677B2, “Compositions and uses thereof for the treatment of heart failure in domestic animals” (CEVA SANTE ANIMALE, priority 2014, dated 2024).
# Legend:
# healthy dogs = experiment: PK/PD studies of diuretic effect (urinary volume) after one-day and fourteen-day oral administration; format: in vivo; details: for Urinary volume on day 1 / Urinary volume on day 14: healthy dogs
# Experimental: Two pharmacokinetics studies (PK/PD) in healthy dogs have been performed to investigate and model the pharmacodynamic effects of torasemide, furosemide and placebo after a one-day and fourteen-day oral administration of furosemide at the following doses: 1 and 4 mg/kg/12 hours, and of torasemide at the following doses: 0.2, 0.25, 0.30 and 0.50 mg/kg/day. • 1 and 4 mg/kg furosemide have been administered to five dogs on the basis of repeated oral administration twice daily for 14 days (corresponding to 2 and 8 mg/kg/day). • 0 (placebo), 0.2, 0.25, 0.30 and 0.50 mg/kg torasemide have been administered to five dogs on the basis of repeated oral administration daily for 14 days.
# [1] = test system: dog model having no clinical signs of heart failure; details: 0.2 mg/kg/day torasemide versus 2 mg/kg/day furosemide, seven days; cited from earlier work
# [2] = test system: dogs that had become resistant to furosemide; details: torasemide dose ten times lower (1/10) than reference furosemide dose; cited from earlier work
# [3] = furosemide 2 mg/kg/day (1 mg/kg/12 hours) oral
# [4] = furosemide 8 mg/kg/day (4 mg/kg/12 hours) oral
# [5] = torasemide 0.20 mg/kg/day oral once daily
# [6] = torasemide 0.25 mg/kg/day oral once daily
# [7] = torasemide 0.30 mg/kg/day oral once daily
# [8] = torasemide 0.5 mg/kg/day oral once daily
Structure (SMILES),Urinary volume on day 1 (healthy dogs; [3]) [mL],Urinary volume on day 14 (healthy dogs; [3]) [mL],Urinary volume on day 1 (healthy dogs; [4]) [mL],Urinary volume on day 14 (healthy dogs; [4]) [mL],Diuretic potency compared with furosemide [1],Duration of diuretic effect compared with furosemide [1],Diuretic potency compared with reference dose of furosemide [2],"Urinary volume compared with test control (placebo) (healthy dogs; 0.20 to 0.50 mg/kg/day of torasemide, day 1 and day 14) [mL]",Urinary volume on day 1 (healthy dogs; [5]) [mL],Urinary volume on day 14 (healthy dogs; [5]) [mL],Urinary volume on day 1 (healthy dogs; [6]) [mL],Urinary volume on day 14 (healthy dogs; [6]) [mL],Urinary volume on day 1 (healthy dogs; [7]) [mL],Urinary volume on day 14 (healthy dogs; [7]) [mL],Urinary volume on day 1 (healthy dogs; [8]) [mL],Urinary volume on day 14 (healthy dogs; [8]) [mL]
"NS(=O)(=O)c1cc(C(=O)O)c(NCc2ccco2)cc1Cl [Furosemide, furosemide]",374,532,620,1033,,,,,,,,,,,,
"Cc1cccc(Nc2ccncc2S(=O)(=O)NC(=O)NC(C)C)c1 [Torasemide, N-[(isopropylamino)carbonyl]-4-[(3-methylphenyl)amino] pyridine-3-sulfonamide]",,,,,as potent as furosemide,longer diuretic effect,as potent in producing a diuretic effect,> 220,455,561,500,696,659,816,700,1100
